{
  "source": "patent US10640748B2",
  "about": "“Oligodendroglial cell culturing methods and in methods for treating neurodegenerative disorders by using thyroid hormones or analogues” (NeuOrphan Pty Ltd, priority 2014, dated 2020)",
  "key": {"[1]": {"test_system": "Nkx2.1-GFP+ sorted cells at stage VI", "experiment": "qRT-PCR gene expression in Nkx2.1-GFP+ sorted cells at stage VI treated with T3, DITPA or T3+DITPA", "type": "cell-based, human", "procedure": "RNA was isolated from cells by using RNeasy Mini Kit (Qiagen) according to the manufacturer's instruction and treated with DNase-I to remove genomic DNA. The concentrations of total RNA were measured by Nanodrop ND-1000 spectrophotometer v3.7 (Thermo Specific) and complementary DNA (cDNA) was synthesized from 1 μg of total RNA using High-Capacity cDNA Reverse Transcription Kit (Applied Biosystems) according to the manufacturer's instructions. Real-Time Quantitative Reverse Transcription Polymerase Chain Reaction (qRT-PCR) was performed with 5-20 ng of cDNA template, 2× Taqman Gene expression master mix and 20× Taqman probes (Life technologies) on ABI Prism 7900HT Sequence detection system (Applied Biosystems). Gapdh served as an endogenous standard control. The qRT-PCR thermo-cycling reaction was 1 cycle at 50° C. for 2 minutes, 1 cycle at 95° C. for 10 minutes and 40 cycles of 95° C. for 15 seconds, then 60° C. for 1 minute. The threshold cycle (CT) value, which represents the cycle at which the first PCR product is detected, was measured in triplicate and normalized against the endogenous control, GAPDH, to determine the ΔCT value. Then the ΔCT values of GFP-positive cells were then standardized against the ΔCT values of undifferentiated hESCs, derived as relative mRNA expression (ΔΔCT).\nBar graphs illustrating the qRT-PCR analyses in FIG. 2, 3, S1-3 representing the log2 of the average fold-change in gene expression compared directly to the undifferentiated Stage I hESC or T3-treated cells at day 7 in FIG. 5 and S5."}, "[2]": {"test_system": "Pre-OLs from Nkx2.1-GFP+ sorted cultures at stage VI, day 21", "experiment": "Pharmacological blockade of MCT8 with Bosutinib, DAPI+ dead cells by flow cytometry", "type": "cell-based, human", "conditions": "co-administration of 10 ng/mL DITPA with Bosutinib, 48 hours", "procedure": "Pre-OLs from Nkx2.1-GFP+ sorted cultures at stage VI, day 21 were treated with the pharmacological inhibitor of MCT8, bosutinib (LC Laboratories, B-1788, reconstituted in dimethyl sulfoxide, [DMSO]) at different concentrations (1 ng/mL, 10 ng/mL and 100 ng/mL) with co-administration of 10 ng/mL DITPA. An MTT assay and flow cytometry were then performed on the cells stained for DAPI after 48 hours of treatment, to analyze DAPI+ dead cells."}, "[3]": {"test_system": "Pre-OLs from Nkx2.1-GFP+ sorted cultures at stage VI", "experiment": "Cell cycle analysis with BrdU (flow cytometry)", "type": "cell-based, human", "procedure": "BrdU cell cycle analysis was performed according to the manufacturer's protocol (BD Biosciences). For a detailed protocol, see Supplemental Experimental Procedures.\nPre-OLs from Nkx2.1-GFP+ sorted cultures at stage VI day 7 and day 21 were pulsed with BrdU for 1 hour. Cells were then treated with DNAse I for 45 minutes then collected using accutase (Life Technologies). Collected cells were fixed and permeabilized and stained with anti-BrdU conjugated with APC for 30 minutes at 4° C. Cells were washed and stained with 7-AAD. Cells were then analyzed on LSR-Fortessa (BD Biosciences). Unpulsed cells and pulsed cells without anti-BrdU staining served as a negative control."}, "[4]": {"test_system": "Nkx2.1-GFP sorted cells transduced with slc16a2 shRNA lentivirus", "experiment": "Apoptosis assay (cleaved caspase-3) after stable knockdown of slc16a2", "type": "cell-based", "conditions": "DITPA from 3 days post-LV-transduction", "procedure": "Nkx2.1-GFP sorted cells at the end of stage VI or V were transduced with MOI of 10 in appropriate stage-specific medium containing polybrene (5 μg/mL, Sigma-Aldrich). Efficiency of transduction was validated by analyzing mCherry+ cells by flow cytometry and efficiency of knockdown was validated by analyzing the slc16a2 transcript level by qRT-PCR 72 hours post-transduction. An apoptosis assay was performed on cells either, treated with or without DITPA for 2 days from 72 hours post-transduction, then fixed. Cells were stained with monoclonal rat anti-mCherry (M11217, Life Technologies, 1:1,000), polyclonal rabbit anti-cleaved caspase-3 (9661, Cell Signaling Technology, 1:400) and DAPI (Life Technologies) then analyzed by confocal microscopy (Nikon A1 Inverted using a ×20 water objective lens). Apopotic OLs were defined as those mCherry-positive cells with cleaved caspase-3+ nuclei that were also condensed and fragmented as assessed by DAPI. The data were plotted as the number of cleaved caspase-3/mCherry+ cells divided by total number of mCherry+ cells."}, "[5]": {"conditions": "compared to T3 treated cultures"}, "[6]": {"conditions": "differentiating cultures treated with DITPA"}},
  "note": "“Also recorded” adds a separate entry of the source.",
  "data": [
    {"molecule": "O=C(O)CCc1cc(I)c(Oc2ccc(O)cc2)c(I)c1", "note": "[DITPA, 3,5-Diiodothyropropionic acid]", "values": [
      {"measurement": "cdkn1b (p27) expression", "setting": "[1]; [5]", "value": "up-regulated"},
      {"measurement": "tp53 (p53) expression", "setting": "[1]; [5]", "value": "up-regulated"},
      {"measurement": "OL differentiation", "setting": "[1]; compared with T3", "value": "promotes OL differentiation"},
      {"measurement": "dio2 expression", "setting": "[1]; compared with T3 treatment", "value": "no significant differences"},
      {"measurement": "dio3 expression", "setting": "[1]; compared with T3 treatment", "value": "no significant differences"},
      {"measurement": "thrb expression", "setting": "[1]; compared with T3 treatment", "value": "no significant differences"},
      {"measurement": "slc16a2 (MCT8) expression", "setting": "[1]; day 7, compared with T3", "value": "significant up-regulation"},
      {"measurement": "slc16a10 (MCT10) expression", "setting": "[1]; day 7, compared with T3", "value": "significant up-regulation"},
      {"measurement": "plp1 expression", "setting": "[1]; day 21 of treatment, versus T3 alone", "value": "substantial up-regulation"},
      {"measurement": "mbp expression", "setting": "[1]; [6]", "value": "up-regulation"},
      {"measurement": "myt1 expression", "setting": "[1]; [6]", "value": "up-regulation"},
      {"measurement": "plp1 expression", "setting": "[1]; [6]", "value": "up-regulation"},
      {"measurement": "olig1 expression", "setting": "[1]; following DITPA treatment", "value": "up-regulated"},
      {"measurement": "olig2 expression", "setting": "[1]; following DITPA treatment", "value": "up-regulated"},
      {"measurement": "sox10 expression", "setting": "[1]; following DITPA treatment", "value": "up-regulated"},
      {"measurement": "up-regulation of slc16a10", "setting": "[1]; following DITPA treatment", "value": "~14", "unit": "fold"},
      {"measurement": "bmp7 expression", "setting": "[1]; upon DITPA treatment", "value": "down-regulation"},
      {"measurement": "frzb expression (WNT antagonist)", "setting": "[1]; upon DITPA treatment", "value": "up-regulation"},
      {"measurement": "jun expression", "setting": "[1]; upon DITPA treatment", "value": "down-regulation"},
      {"measurement": "sfrp1 expression (WNT antagonist)", "setting": "[1]; upon DITPA treatment", "value": "up-regulation"},
      {"measurement": "sfrp2 expression (WNT antagonist)", "setting": "[1]; upon DITPA treatment", "value": "up-regulation"},
      {"measurement": "tgfb3 expression", "setting": "[1]; upon DITPA treatment", "value": "down-regulation"},
      {"measurement": "tnfrsf2 (encodes DR6) expression", "setting": "[1]; upon DITPA treatment", "value": "almost negligible up-regulation"},
      {"measurement": "wnt5a expression", "setting": "[1]; upon DITPA treatment", "value": "down-regulation"},
      {"measurement": "cell death (DAPI+ dead cells) under Bosutinib MCT8 blockade", "setting": "[2]", "value": "significant reduction in cell death; also recorded: DITPA treatment of differentiating OPCs overcomes the cell death initiated by the"},
      {"measurement": "cell cycle exit", "setting": "[3]; compared with T3", "value": "potentiates cell cycle exit faster than T3"},
      {"measurement": "numbers of cells in S phase", "setting": "[3]; day 7, compared with T3 alone", "value": "significant reduction"},
      {"measurement": "cell death / apoptosis mediated by slc16a2 knock-down", "setting": "[4]", "value": "significantly reduced cell death; also recorded: Depicts an experiment which shows that DITPA rescues oligodendrocyte death"}
    ]}
  ]
}
